{"source": "patent US20240024335A1", "about": "“TREATMENT AND PREVENTION OF ANAEMIA OF INFLAMMATION” (Sanquin IP B.V., priority 2020, published 2024)", "key": {"sickle cell patients": {"test_system": "sickle cell patients", "conditions": "Ataga et al.; cited from earlier work"}, "donor RBCs": {"test_system": "donor RBCs", "test": "Flow assay: adhesion of donor RBC to laminin-α5 in response to IL-8 and sera from sepsis patients"}, "[1]": {"conditions": "in vivo; cited from earlier work"}}, "note": "Entries after “also recorded” stand apart in the source; their conditions may differ.", "data": [{"compound": "NC(=O)C(c1ccccc1)(c1ccc(F)cc1)c1ccc(F)cc1", "note": "[Senicapoc, 4-fluoro-α-(4-fluorophenyl)-α-phenyl-benzeneacetamide]", "values": [{"measurement": "Reduction of vaso-occlusive events", "setting": "sickle cell patients", "result": "did not result in reduction of vaso-occlusive events"}, {"measurement": "AI-mediated degradation of RBC in vitro", "setting": "donor RBCs; in vitro, see Example 1", "result": "counteracts AI-mediated degradation of RBC"}, {"measurement": "Tolerability", "setting": "[1]", "result": "well-tolerated"}]}, {"compound": "Clc1ccccc1C(c1ccccc1)(c1ccccc1)n1cccn1", "note": "[TRAM34, 1-[(2-chlorophenyl)diphenylmethyl]-1H-pyrazole]", "values": [{"measurement": "Adhesion of donor RBCs to laminin-α5 in response to IL-8 incubation", "setting": "donor RBCs; RBCs pre-incubated with inhibitor 30 min, then IL-8 30 min at 37° C., FIG. 8B, 8C", "result": "inhibited; also recorded: counteracted"}, {"measurement": "Adhesion of donor RBCs to laminin-α5 in response to sera of sepsis patients", "setting": "donor RBCs; RBCs pre-incubated with inhibitor 30 min, then sera of sepsis patients 30 min at 37° C., FIG. 8D", "result": "inhibited"}]}]}
